Source: patent US20230271947A1, “SALT AND CRYSTAL FORM OF KETOHEXOKINASE INHIBITOR AND USE THEREOF” (SHANDONG XUANZHU PHARMA CO., LTD., priority 2020, published 2023)

Legend:
KHK-C = biological target: T1, KHK-C (Homo sapiens, UniProt P50053); experiment: In vitro KHK kinase inhibitory activity test (ADP-Glo); type: biochemical; details: 1 nM KHK-C, 100 µM ATP, 200 µM D-Fructose
T1 construct: purchased Origene TP323488
T1 sequence (P50053 1-298): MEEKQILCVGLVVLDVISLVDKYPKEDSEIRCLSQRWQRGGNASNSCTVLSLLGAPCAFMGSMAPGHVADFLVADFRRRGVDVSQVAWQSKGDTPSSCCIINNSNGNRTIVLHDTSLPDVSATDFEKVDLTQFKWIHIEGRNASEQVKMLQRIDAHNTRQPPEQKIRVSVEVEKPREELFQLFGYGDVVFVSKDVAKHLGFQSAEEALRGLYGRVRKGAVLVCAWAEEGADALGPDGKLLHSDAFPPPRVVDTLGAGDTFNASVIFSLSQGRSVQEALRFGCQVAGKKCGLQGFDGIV
Experimental: 1) DMSO was used to prepare the compound of the present invention and a control drug to 10 mM, which was used as a testing stock solution.
2) The compound stock solution of the present invention was diluted 10-fold to 1 mM, and then the compound of the present invention was diluted in gradient 3-fold to 11 concentrations, with the highest concentration of 1 mM. The control drug stock solution was diluted 100-fold to 0.1 mM, and then the control drug was diluted in gradient 3-fold to 11 concentrations, with the highest concentration of 0.1 mM.
3) 0.1 µL of the diluted compound of the present invention and 0.1 µL of the diluted control drug were transferred by using Echo550 to a 384-well plate respectively, with two repeated wells set for each concentration, and centrifuged at 1,000 rpm for 1 min.
1) 5 µL of KHK-C kinase working fluid was added to a 384-well plate, centrifuged at 1,000 rpm for 1 min, and then incubated at a room temperature of 25° C. for 15 min. […]
3) After the reaction was completed, fluorescence value LUM was read on Envision.
Inhibition (% inh) was calculated by using the following equation: […]
IC50 was calculated by curve fitting with software.

[1] = Stability investigation of crystal forms A, B, C, D and the amorphous form of the compound of formula (1) (related substances by HPLC, moisture, XRD, DSC); type: physicochemical
Experimental: (§1) 2.1 Investigation conditions for the crystal form A of the compound of formula (1): • placed at 105° C. for 5 days, opened, and sampled for testing on day 5; • placed at 60° C. for 10 days, opened/closed, and sampled for testing on day 10; • placed at 25° C. and RH 92.5% for 10 days, opened/closed, and sampled for testing on day 10; • placed at 40° C. and RH 75% for one month, opened/closed, and sampled for testing on the last day of the month; and • under illumination, employing a closed way (polyethylene bag + composite film bag) to meet illumination requirements, and sampled for testing.
Illumination requirements: ICH Q1B Stability Testing: Photostability Testing of New Drug Substances and Products.
Determination of related substances: determined according to 0512 HPLC in General Principle (Volume IV) of Chinese Pharmacopoeia (2015 Version).
Moisture determination: determined according to 2 Coulometric Titration in the First Method (Karl Fischer titration) of 0832 Moisture Determination Method in General Principle (Volume IV) of Chinese Pharmacopoeia (2015 Version).
XRD determination: determined according to the Second Method-Powder X-ray Diffraction Method of 0451 X-ray Diffraction Method in General Principle (Volume IV) of Chinese Pharmacopoeia (2015 Version).
DSC determination: precisely weighing an appropriate amount of sample in a Standard disc, covering the Standard disc, placing the Standard disc in a sample disc position in a DSC furnace, placing a blank disc of the same type in a reference position, and carrying out the following temperature rise program:
1. Equilibrate at 25° C.; and
as §1, with “B” for “A”
as §1, with “C” for “A”
1. Equilibrate at 25° C.; and 2. Ramp 10° C. to 200° C.
as §1, with “D” for “A”
as §1, with “amorphous” for “crystal”, “form” for “form A”, “(1):” for “(1): • placed at 105° C. for 5 days, opened, and sampled for testing on day 5;”

[2] = test system: D-Fructose-induced fructose-1-phosphate in HepG2 cells; experiment: In vitro cell inhibitory activity test: D-Fructose-induced fructose-1-phosphate in HepG2 cells (LC-MS); type: cell-based; details: D-Fructose 3 h, read-out: EC50 (nM), inhibition of D-Fructose-induced fructose-1-phosphate
Experimental: 1) HepG2 cells in logarithmic growth phase were collected and counted by using a […]. Cell viability was detected by trypan blue exclusion method to ensure that the cell viability was above 90%.
2) A concentration of the HepG2 cells was adjusted, and 81 µL of FBS-free basal medium (starvation treated) cell suspension was added to each 96-well plate with a testing well cell inoculation quantity of 5 × 10^4.
3) The HepG2 cells in the 96-well plates were cultured overnight at 37° C., 5% CO2, and 95% humidity.
1) Before dosing, 9 µL of FBS was added into testing wells of the 96-well plate, and the starvation treatment was stopped.
2) A 10-fold compound solution was prepared, with the highest concentration of 100 µM, 8 concentrations and 3-fold gradient dilution. 10 µL of drug solution was added to each well of the 96-well plate inoculated with the cells, and three repeated wells were set for each drug concentration. 10 µL of 1% DMSO solution was added to the solvent control group, and three repeated wells were set.
3) The cells in the 96-well plates added with the drug were incubated at 37° C., 5% CO2, and 95% humidity for 30 min.
4) A 11-fold D-Fructose solution was prepared, with a concentration of 220 mM. […]
Data were analyzed by GraphPad Prism 5.0 software, a dose-effect curve was obtained by using nonlinear S-curve regression, and the EC50 value was calculated.

[3] = 25° C., RH 92.5%, closed, 10 days
[4] = 25° C., RH 92.5%, opened, 10 days

Q: For `C[C@H]1CCN1c1nc(N2C[C@@H]3[C@@H](CC(=O)O)[C@@H]3C2)c2c(n1)C(F)(F)CC2` [Compound of formula (1), 2-((1R,5S,6R)-3-(7,7-difluoro-2-((S)-2-methylazetidin-1-yl)-6,7-dihydro-5H-cyclopenta[d]pyrimidin-4-yl)-3-azabicyclo[3.1.0]hexan-6-yl)acetic acid], which IC50 (KHK-C) is on record?
A: The IC50 was 0.82 nM.

Q: What does the source list for `C[C@H]1CCN1c1nc(N2C[C@@H]3[C@@H](CC(=O)O)[C@@H]3C2)c2c(n1)C(F)(F)CC2` [Crystal form D, 2-((1R,5S,6R)-3-(7,7-difluoro-2-((S)-2-methylazetidin-1-yl)-6,7-dihydro-5H-cyclopenta[d]pyrimidin-4-yl)-3-azabicyclo[3.1.0]hexan-6-yl)acetic acid]?
A: DSC ([1]; 0 day): 167.79 °C; Moisture % ([1]; 0 day): 0.066%; Total related % ([1]; 0 day): 0.37%; Trait ([1]; 0 day): Off-white power; DSC [1, 3]: 167.46 °C; Moisture % [1, 3]: 0.092%; Total related % [1, 3]: 0.38%; Trait [1, 3]: Off-white power; XRD [1, 3]: Same as day 0; DSC [1, 4]: 167.51 °C; Moisture % [1, 4]: 0.048%; Total related % [1, 4]: 0.38%; Trait [1, 4]: Off-white power; XRD [1, 4]: Same as day 0; DSC ([1]; 40° C., RH 75%, closed, 1 M): 167.77 °C; Moisture % ([1]; 40° C., RH 75%, closed, 1 M): 0.065%; Total related % ([1]; 40° C., RH 75%, closed, 1 M): 0.38%; Trait ([1]; 40° C., RH 75%, closed, 1 M): Off-white power; XRD ([1]; 40° C., RH 75%, closed, 1 M): Same as day 0; DSC ([1]; 40° C., RH 75%, opened, 1 M): 167.75 °C; Moisture % ([1]; 40° C., RH 75%, opened, 1 M): 0.12%; Total related % ([1]; 40° C., RH 75%, opened, 1 M): 0.39%; Trait ([1]; 40° C., RH 75%, opened, 1 M): Off-white power; XRD ([1]; 40° C., RH 75%, opened, 1 M): Same as day 0; DSC ([1]; 60° C., closed, 10 days): 167.43 °C; Moisture % ([1]; 60° C., closed, 10 days): 0.089%; Total related % ([1]; 60° C., closed, 10 days): 0.40%; Trait ([1]; 60° C., closed, 10 days): Off-white power; XRD ([1]; 60° C., closed, 10 days): Same as day 0; DSC ([1]; 60° C., opened, 10 days): 167.41 °C; Moisture % ([1]; 60° C., opened, 10 days): 0.079%; Total related % ([1]; 60° C., opened, 10 days): 0.41%; Trait ([1]; 60° C., opened, 10 days): Off-white power; XRD ([1]; 60° C., opened, 10 days): Same as day 0; DSC ([1]; 105° C., opened, 5 days): 167.19 °C; Moisture % ([1]; 105° C., opened, 5 days): 0.045%; Total related % ([1]; 105° C., opened, 5 days): 0.51%; Trait ([1]; 105° C., opened, 5 days): Off-white power; XRD ([1]; 105° C., opened, 5 days): Same as day 0; DSC ([1]; Avoid light for 18 days): 167.49 °C; Moisture % ([1]; Avoid light for 18 days): 0.048%; Total related % ([1]; Avoid light for 18 days): 0.38%; Trait ([1]; Avoid light for 18 days): Off-white power; XRD ([1]; Avoid light for 18 days): Same as day 0; Stability, testing conclusion ([1]; under the above conditions (all placement conditions of the study)): relatively stable

Q: Which EC50 [2] does the source give for `C[C@H]1CCN1c1nc(N2C[C@@H]3[C@@H](CC(=O)O)[C@@H]3C2)cc(C(F)(F)F)n1` [PF-06835919] here?
A: Its EC50 is 169 nM.
